The record followed here is patent publication US7314858B2, “Retrocyclins: antiviral and antimicrobial peptides” (priority 2001, dated 2008).

Structures are written as SMILES. “Also recorded” adds a separate entry of the source. Where a SMILES comes first, the peptide text is derived from it. Bridges are numbered along the chain shown (N, C = ends).

One series deals with HIV-1 strain IIIB. Put plainly: HIV-1 IIIB infection of H9 cells, p24 antigen ELISA. It is filed as cell-based. As to the method:
FIG. 1. Circular minidefensins reduce HIV-1 infection of H9 cells. HIV-I strain IIIB (MOI=10^−2) was incubated with 2.5×10^5 H9 cells in the presence or absence of 20 μg/ml RTD-1, RTD-2 or RTD-3. p24 antigen release was monitored by ELISA on days 3, 6, and 9. Assay sensitivity=10 pg/ml.
Immortalized CD4^+ H9 cells, which are permissive for infection with this strain, were maintained in RPMI supplemented with 10% heat-inactivated fetal calf serum (FCS), 10 mM HEPES, 2 mM glutamine, 100 U of penicillin/ml, and 10 μg of streptomycin/ml (R10 media). Cells (2.5×10^5/100 μl) were incubated with virus (multiplicity of infection (MOI)=10^−2) in the presence or absence of 20 μg/ml RTD-1, RTD-2 or RTD-3 for 3 hrs at 37° C./5% CO2. The cells were washed in R10 media, seeded in 48-well tissue culture plates in 1 ml R10 media, and incubated at 37° C./5% CO2 for 9 days. Aliquots of cell supernatant were removed at the specified time points and analyzed by a sensitive ELISA (DuPont NEN) that quantitates p24 antigen of HIV-1. The three circular rhesus minidefensins were similarly active, inhibiting HIV-1 by 100-1000 fold by 9 days post-inoculation (note the logarithmic scale).
Either HIV-1-permissive H9 cells were used as targets, or primary CD4^+ lymphocytes from HIV-1-seronegative donors generated from freshly purified peripheral blood mononuclear cells (PBMC) stimulated with a CD3-CD8 bispecific monoclonal antibody. After approximately 7 days, when 98% of these cells co-expressed CD3 and CD4, they were infected with HIV-1 with or without retrocyclin or other test peptide. These cells were maintained in RPMI containing 10% FCS supplemented with 2 mM glutamine, 100 U of penicillin/ml, 10 μg of streptomycin/ml, and 50 U of interleukin 2/ml (R10-50 media).
Mature retrocyclin was prepared by a three-step process.
On the technique in general: An ELISA detects its analyte on a solid surface through an enzyme-linked reagent.

A further series concerns L. monocytogenes EGD. Put plainly: Two-stage radial diffusion assay. The format is cell-based, Listeria monocytogenes. As to the method:
FIG. 4. Effect of salt on antibacterial activity of circular minidefensins. Human retrocyclin and monkey RTD-1 were tested against our standard lab stains: E. coli ML-35p, P. aeruginosa MR 3007, L. monocytogenes EGD, and S. aureus 930918. The bars show MIC values±SEM values that resulted from 3-6 radial diffusion assays per organism and assay condition.
The effects of NaCl on the antimicrobial activity of retrocyclin and RTD-1, from two-stage radial diffusion assays, are compared in FIG. 4.

A short description of the next series: MTT cytotoxicity assay. The following applies: human, H9 cells. It is filed as cell-based, human. As to the method: (§1) FIG. 8. Cytotoxicity of antimicrobial peptides against H9 cells. Retrocyclin, RTD-1 and PG-1 (a porcine-derived peptide with anti-HIV-1 activity) were tested for cytotoxicity using an MTT assay for cell proliferation. Note that the EC50 of Retrocyclin and RTD-1 were >100 μg/ml, concentrations well above their antiviral concentration.
(§2) Retrocyclin is not cytotoxic. […] Retrocyclin was not hemolytic for human erythrocytes.
In general terms: Formazan colour is commonly taken as a measure of viable cells.

The test system of another series is H9 cells. The experiment in a line: MTT cytotoxicity assay. The format is cell-based, human. The following applies: 100 μg/ml. How it is done:
as §1, §2

Series [1] can be described thus: Preliminary surface plasmon resonance, sphingolipid binding. As to conditions: preliminary SPR. For orientation: Surface plasmon resonance follows binding to a sensor surface in real time, without labels.
The next series has as its target T1, gp120 (LAV) (Human immunodeficiency virus type 1 group M subtype B, UniProt P03377).
T1 construct: Glycosylated HIV-1 gp120 (LAV) envelope glycoprotein; purchased Protein Sciences Corporation, Meriden, Conn; 2003-LAV
The experiment in a line: Surface plasmon resonance binding. Details: species or system HIV-1. As to the method:
FIG. 20. Binding to gp120. These binding isotherms were measured by surface plasmon resonance, using a biosensor chip that contained immobilized, recombinant gp120. Various concentrations of RC-100 and RC-101 (0.05 to 0.5 μg/ml) flowed over the biosensor chip between minutes 1 to 4, to allow the “on rates” to be measured. At 4 minutes, the peptide-containing solutions were replaced by peptide-free medium, to ascertain the “off-rates.”
Surface plasmon resonance. Recombinant human soluble CD4 (full-length 45 kDa glycosylated ectodomain) was produced by ExpresSF+S. frugiperda cells in serum-free medium (Protein Sciences Corporation, Meriden, Conn.). Glycosylated HIV-1 gp120 (LAV) envelope glycoprotein (Catalog No. 2003-LAV) was purchased from the same source. Recombinant HIV-1BaL was obtained through the AIDS Research and Reference Reagent Program, Division of AIDS, National Institute of Allergy and Infectious Disease, NIH.
Surface plasmon resonance (SPR) experiments were done with a Biacore 2000 system (Biacore, Inc., Piscataway, N.J.). The running buffer (pH 7.4) contained 10 mM HEPES, 150 mM NaCl, 3 mM EDTA and 0.005% polysorbate 20. The immobilized proteins (gp120-LAV and CD4) were dissolved at 20 μg/ml in 10 mM sodium acetate, pH 5.0 and immobilized on a Biacore CM5 sensor chip using the amine coupling method. The chip was activated by mixing 400 mM EDC (N-ethyl-N-(3-dimethylaminopropyl)-carbodiimide hydrochloride) and 100 mM N-hydroxysuccinimide. An immobilization level of −6000 response units (RU) was attained for each bound protein. Residual reactive groups on the chip surface were blocked using 1.0 Methanolamine/HCl, pH 8.5.
The flow cell chip used as a control lacked immobilized protein but was otherwise treated as above. Signals were corrected for nonspecific binding by subtracting the control signal. To regenerate the chip surface, bound ligands were removed with 10 mM HCl. Data were analyzed with BIAevaluation 3.1 software. Curve fitting was done with an assumption of 1:1 binding.
We previously reported that the protection against HIV-1 afforded by retrocyclin-1 and its analogs was correlated to their binding to gp120 and CD4. In those experiments, biosensor chips containing immobilized gp120 or CD4 were perfused with a 1 μg/ml solution of the peptides, and binding was measured by surface plasmon resonance. When we compared binding by retrocyclin-1 and RC-101 in exactly the same manner, we saw very little difference between them. FIG. 20 compares the binding of lower concentrations of these peptides, ranging from 0.05 to 0.5 μg/ml, to immobilized gp120 LAV. From these binding isotherms, and from similar studies performed with biosensor chips containing immobilized gp120 BaL or CD4, the binding constants shown in Table 7 were obtained. […]

The test system of series [2] is ME-180 cervical carcinoma cells. As to conditions: 100 μg/ml.

Broadly, the EC50 is the concentration at which the effect is half-maximal. A low value points to higher potency in that assay. For orientation: koff means the first-order rate constant of dissociation. What is called kon is the second-order rate constant of association. Regarding `CC[C@H](C)[C@@H]1NC(=O)CNC(=O)[C@H](CCCNC(=N)N)NC(=O)CNC(=O)[C@@H]2CSSC[C@H](NC1=O)C(=O)N[C@@H](CCCNC(=N)N)C(=O)N[C@H]1CSSC[C@H](NC(=O)[C@H](CCCNC(=N)N)NC(=O)[C@@H]3CSSC[C@H](NC(=O)[C@H]([C@@H](C)CC)NC1=O)C(=O)NCC(=O)N[C@@H](CCCNC(=N)N)C(=O)NCC(=O)N[C@@H]([C@@H](C)CC)C(=O)N3)C(=O)N[C@@H]([C@@H](C)CC)C(=O)N2` [RC-100, Retrocyclin] (cyclo(GICRCICGRGICRCICGR); disulfide 3-16, 5-14, 7-12), in the series with HIV-1 strain IIIB, the “concentration required for complete protection against HIV-1 infection” value was 10 µg/mL. For the same compound, in the series with HIV-1 strain IIIB (H9 cells, IIIB (X4), peptide 10-20 μg/ml), the “inhibition of HIV-1 replication (p24)” value is “complete suppression; also recorded: antiviral”. Besides, the antiviral activity entry with HIV-1 strain IIIB (at <2 μg/ml, n=5) was “no significant antiviral activity”. In addition, in the series on L. monocytogenes EGD (hypersalinity (175 mM NaCl)), the “effect of salt on antimicrobial activity” value is “only modestly inhibitory”. In addition, the antimicrobial activity entry in the series on L. monocytogenes EGD (physiological (100 mM) NaCl) is reported as “strong activity”. The half-maximal effective concentration (EC50) in the series “MTT cytotoxicity assay” is > 100 µg/mL. In addition, in the series on H9 cells, the “cytotoxicity (MTT)” value is given as “little to no cytotoxicity”. Further, the “binding to sphingolipids (galactosylceramide)” value in series [1] is on record as “binds with high affinity”. At gp120 (LAV), the koff came out at 0.00296 s⁻¹ and the kon turned out to be 80300 M⁻¹ s⁻¹. Further, the “cytotoxicity (MTT)” value in series [2] is “little to no cytotoxicity”. Further, in the series on human erythrocytes, the hemolysis entry is listed as “not hemolytic”.
On gp120 (LAV), `CC[C@H](C)[C@@H]1NC(=O)CNC(=O)[C@H](CCCCN)NC(=O)CNC(=O)[C@@H]2CSSC[C@H](NC1=O)C(=O)N[C@@H](CCCNC(=N)N)C(=O)N[C@H]1CSSC[C@H](NC(=O)[C@H](CCCNC(=N)N)NC(=O)[C@@H]3CSSC[C@H](NC(=O)[C@H]([C@@H](C)CC)NC1=O)C(=O)NCC(=O)N[C@@H](CCCNC(=N)N)C(=O)NCC(=O)N[C@@H]([C@@H](C)CC)C(=O)N3)C(=O)N[C@@H]([C@@H](C)CC)C(=O)N2` [RC-101, R9K-Retrocyclin] came in with an off-rate constant (koff) of 0.00304 s⁻¹ and a kon of 97200 M⁻¹ s⁻¹.
